Test results from patent US5807535A, “Metal complexes of hydroxyaryl containing aminocarboxylic acid chelating agents” (Australian Nuclear Science & Technology Organisation, priority 1992, dated 1998).
Where two headings read alike, the source gives them in different places.

Legend:
[1] = Biodistribution of 99mTc complexes in rats; type: in vivo, Australian Albino Wistar Rats; details: for tissue uptake at 0.5 min / tissue uptake at 1 min / tissue uptake at 0.05 h / tissue uptake at 5 min / tissue uptake at 10 min: rat; for tissue uptake at 0.5 min: 30 sec
Outline: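 Chelators were dissolved in basic saline, brought to about pH 6 with HCl, and reduced with excess stannous chloride before one equivalent volume of sodium 99mTcO4 (10-50 mCi/ml) was added, giving roughly 1 mg/ml chelator. Labelling efficacy was checked by ITLC-SG. Complexes were diluted in saline to 15 μCi/100 μl for rat biodistribution, with tissue uptake expressed as %ID/g.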

[2] = Biodistribution of 67Ga complexes in mice; type: in vivo, balb/c mice
Outline: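 Ligand labelled with 67Ga citrate at pH 12, 40 °C for 40 min, diluted in saline and filter-sterilised. Balb/c mice given ~3.7×10^5 Bq intravenously via tail vein; five animals sacrificed at each of six time points.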

[3] = blood, rats, read-out: biodistribution blood
[4] = bone, rats, read-out: biodistribution bone
[5] = brain, rats, read-out: biodistribution brain
[6] = eyes, rats, read-out: biodistribution eyes
[7] = heart, rats, read-out: biodistribution heart
[8] = kidneys, rats, read-out: biodistribution kidneys
[9] = liver, rats, read-out: biodistribution liver
[10] = lungs, rats, read-out: biodistribution lungs
[11] = muscle, rats, read-out: biodistribution muscle
[12] = pancreas, rats, read-out: biodistribution pancreas
[13] = skin, rats, read-out: biodistribution skin
[14] = spleen, rats, read-out: biodistribution spleen
[15] = stomach, rats, read-out: biodistribution stomach
[16] = tail, rats, read-out: biodistribution tail
[17] = thymus, rats, read-out: biodistribution thymus
[18] = thyroid, rats, read-out: biodistribution thyroid
[19] = total git, rats, read-out: biodistribution tot GIT

CC(C)(C)c1ccc(O)c(NC(=O)CN(CCN(CC(=O)O)CC(=O)Nc2cc(C(C)(C)C)ccc2O)CC(=O)O)c1 [Compound 4]
hepatobiliary passage ([1]; Tables 2 and 4): specifically traverse the hepatobiliary system | tissue uptake at 0.5 min [1, 3]: 5.84 %ID/g | tissue uptake at 1 min [1, 3]: 3.96 %ID/g | tissue uptake at 0.05 h ([1]; blood, rats, 3 minutes, selected data, read-out: Blood): 1.71 %ID/g | tissue uptake at 5 min [1, 3]: 1.33 %ID/g | tissue uptake at 10 min [1, 3]: 0.99 %ID/g | tissue uptake at 0.5 min [1, 4]: 0.61 %ID/g | tissue uptake at 1 min [1, 4]: 0.54 %ID/g | tissue uptake at 0.05 h ([1]; bone, rats, 3 min, read-out: biodistribution bone): 0.32 %ID/g | tissue uptake at 5 min [1, 4]: 0.26 %ID/g | tissue uptake at 10 min [1, 4]: 0.19 %ID/g | tissue uptake at 0.5 min [1, 5]: 0.43 %ID/g | tissue uptake at 1 min [1, 5]: 0.26 %ID/g | tissue uptake at 0.05 h ([1]; brain, rats, 3 min, read-out: biodistribution brain): 0.12 %ID/g | tissue uptake at 5 min [1, 5]: 0.08 %ID/g | tissue uptake at 10 min [1, 5]: 0.06 %ID/g | tissue uptake at 0.5 min [1, 6]: 0.22 %ID/g | tissue uptake at 1 min [1, 6]: 0.19 %ID/g | tissue uptake at 0.05 h ([1]; eyes, rats, 3 min, read-out: biodistribution eyes): 0.15 %ID/g | tissue uptake at 5 min [1, 6]: 0.13 %ID/g | tissue uptake at 10 min [1, 6]: 0.16 %ID/g | tissue uptake at 0.5 min [1, 7]: 1.78 %ID/g | tissue uptake at 1 min [1, 7]: 1.26 %ID/g | tissue uptake at 0.05 h ([1]; heart, rats, 3 min, read-out: biodistribution heart): 0.65 %ID/g | tissue uptake at 5 min [1, 7]: 0.48 %ID/g | tissue uptake at 10 min [1, 7]: 0.36 %ID/g | tissue uptake at 0.05 h ([1]; kidney, rats, 3 minutes, selected data, read-out: Kidney): 4.54 %ID/g | tissue uptake at 0.5 min [1, 8]: 5.57 %ID/g | tissue uptake at 1 min [1, 8]: 4.86 %ID/g | tissue uptake at 0.05 h ([1]; kidneys, rats, 3 min, read-out: biodistribution kidneys): 4.54 %ID/g | tissue uptake at 5 min [1, 8]: 3.89 %ID/g | tissue uptake at 10 min [1, 8]: 2.33 %ID/g | tissue uptake at 0.5 min [1, 9]: 6.83 %ID/g | tissue uptake at 1 min [1, 9]: 8.03 %ID/g | tissue uptake at 0.05 h ([1]; liver, rats, 3 minutes, selected data, read-out: Liver): 7.89 %ID/g | tissue uptake at 5 min [1, 9]: 7.39 %ID/g | tissue uptake at 10 min [1, 9]: 4.9 %ID/g | tissue uptake at 0.5 min [1, 10]: 2.37 %ID/g | tissue uptake at 1 min [1, 10]: 1.67 %ID/g | tissue uptake at 0.05 h ([1]; lungs, rats, 3 min, read-out: biodistribution lungs): 1 %ID/g | tissue uptake at 5 min [1, 10]: 0.66 %ID/g | tissue uptake at 10 min [1, 10]: 0.53 %ID/g | tissue uptake at 0.5 min [1, 11]: 0.36 %ID/g | tissue uptake at 1 min [1, 11]: 0.29 %ID/g | tissue uptake at 0.05 h ([1]; muscle, rats, 3 min, read-out: biodistribution muscle): 0.22 %ID/g | tissue uptake at 5 min [1, 11]: 0.18 %ID/g | tissue uptake at 10 min [1, 11]: 0.13 %ID/g | tissue uptake at 0.5 min [1, 12]: 0.9 %ID/g | tissue uptake at 1 min [1, 12]: 0.69 %ID/g | tissue uptake at 0.05 h ([1]; pancreas, rats, 3 min, read-out: biodistribution pancreas): 0.55 %ID/g | tissue uptake at 5 min [1, 12]: 0.32 %ID/g | tissue uptake at 10 min [1, 12]: 0.39 %ID/g | tissue uptake at 0.5 min [1, 13]: 0.53 %ID/g | tissue uptake at 1 min [1, 13]: 0.51 %ID/g | tissue uptake at 0.05 h ([1]; skin, rats, 3 min, read-out: biodistribution skin): 0.46 %ID/g | tissue uptake at 5 min [1, 13]: 0.37 %ID/g | tissue uptake at 10 min [1, 13]: 0.36 %ID/g | tissue uptake at 0.5 min [1, 14]: 0.93 %ID/g | tissue uptake at 1 min [1, 14]: 0.8 %ID/g | tissue uptake at 0.05 h ([1]; spleen, rats, 3 min, read-out: biodistribution spleen): 0.42 %ID/g | tissue uptake at 5 min [1, 14]: 0.32 %ID/g | tissue uptake at 10 min [1, 14]: 0.27 %ID/g | tissue uptake at 0.5 min [1, 15]: 1.04 %ID/g | tissue uptake at 1 min [1, 15]: 0.95 %ID/g | tissue uptake at 0.05 h ([1]; stomach, rats, 3 min, read-out: biodistribution stomach): 3.09 %ID/g | tissue uptake at 5 min [1, 15]: 2.71 %ID/g | tissue uptake at 10 min [1, 15]: 3.8 %ID/g | tissue uptake at 0.5 min [1, 16]: 1.03 %ID/g | tissue uptake at 1 min [1, 16]: 0.53 %ID/g | tissue uptake at 0.05 h ([1]; tail, rats, 3 min, read-out: biodistribution tail): 0.39 %ID/g | tissue uptake at 5 min [1, 16]: 1.23 %ID/g | tissue uptake at 10 min [1, 16]: 0.32 %ID/g | tissue uptake at 0.5 min [1, 17]: 0.66 %ID/g | tissue uptake at 1 min [1, 17]: 0.49 %ID/g | tissue uptake at 0.05 h ([1]; thymus, rats, 3 min, read-out: biodistribution thymus): 0.31 %ID/g | tissue uptake at 5 min [1, 17]: 0.22 %ID/g | tissue uptake at 10 min [1, 17]: 0.19 %ID/g | tissue uptake at 0.5 min [1, 18]: 3.49 %ID/g | tissue uptake at 1 min [1, 18]: 2.28 %ID/g | tissue uptake at 0.05 h ([1]; thyroid, rats, 3 min, read-out: biodistribution thyroid): 1.11 %ID/g | tissue uptake at 5 min [1, 18]: 0.89 %ID/g | tissue uptake at 10 min [1, 18]: 0.79 %ID/g | tissue uptake at 0.5 min [1, 19]: 0.61 %ID/g | tissue uptake at 1 min [1, 19]: 0.74 %ID/g | tissue uptake at 0.05 h ([1]; total git, rats, 3 min, read-out: biodistribution tot GIT): 1.59 %ID/g | tissue uptake at 5 min [1, 19]: 2.62 %ID/g | tissue uptake at 10 min [1, 19]: 5.16 %ID/g | tissue uptake at 10 min ([1]; urine, rats, read-out: biodistribution urine): 0.08 %ID/g | liver versus kidney uptake ([1]; rats): preference for the liver uptake as opposed to the kidney | biodistribution blood ([1]; rats, 3 min): 1.71 % Injected dose per gram | biodistribution liver ([1]; rats, 3 min): 7.89 % Injected dose per gram | biodistribution bone ([2]; 1 min): 3.20 % ID | biodistribution kidney ([2]; 1 min): 6.91 % ID | biodistribution liver ([2]; 1 min): 39.06 % ID | biodistribution muscle ([2]; 1 min): 11.34 % ID | biodistribution skin ([2]; 1 min): 11.94 % ID | biodistribution spleen ([2]; 1 min): 0.15 % ID | biodistribution bone ([2]; 3 min): 1.31 % ID | biodistribution kidney ([2]; 3 min): 2.12 % ID | biodistribution liver ([2]; 3 min): 43.23 % ID | biodistribution muscle ([2]; 3 min): 5.08 % ID | biodistribution skin ([2]; 3 min): 8.12 % ID | biodistribution spleen ([2]; 3 min): 0.04 % ID | biodistribution bone ([2]; 5 min): 0.98 % ID | biodistribution kidney ([2]; 5 min): 1.59 % ID | biodistribution liver ([2]; 5 min): 39.61 % ID | biodistribution muscle ([2]; 5 min): 4.29 % ID | biodistribution skin ([2]; 5 min): 8.22 % ID | biodistribution spleen ([2]; 5 min): 0.03 % ID | biodistribution bone ([2]; 10 min): 0.20 % ID | biodistribution kidney ([2]; 10 min): 0.43 % ID | biodistribution liver ([2]; 10 min): 8.29 % ID | biodistribution muscle ([2]; 10 min): 0.65 % ID | biodistribution skin ([2]; 10 min): 2.92 % ID | biodistribution spleen ([2]; 10 min): 0.00 % ID | biodistribution bone ([2]; 30 min): 0.13 % ID | biodistribution kidney ([2]; 30 min): 0.17 % ID | biodistribution liver ([2]; 30 min): 1.06 % ID | biodistribution muscle ([2]; 30 min): 0.32 % ID | biodistribution skin ([2]; 30 min): 0.18 % ID | biodistribution spleen ([2]; 30 min): 0.00 % ID | biodistribution kidney ([2]; 120 min): 0.07 % ID | biodistribution liver ([2]; 120 min): 0.29 % ID | biodistribution muscle ([2]; 120 min): 0.21 % ID | biodistribution skin ([2]; 120 min): 0.15 % ID | biodistribution spleen ([2]; 120 min): 0.01 % ID
